Experiment [1] has as its target T1, ascorbate oxidase from cucumber (Toyobo ASCORBATE OXIDASE, EC 1.10.3.3) (Cucumis sativus, UniProt P14133).
T1 sequence (P14133 34-587): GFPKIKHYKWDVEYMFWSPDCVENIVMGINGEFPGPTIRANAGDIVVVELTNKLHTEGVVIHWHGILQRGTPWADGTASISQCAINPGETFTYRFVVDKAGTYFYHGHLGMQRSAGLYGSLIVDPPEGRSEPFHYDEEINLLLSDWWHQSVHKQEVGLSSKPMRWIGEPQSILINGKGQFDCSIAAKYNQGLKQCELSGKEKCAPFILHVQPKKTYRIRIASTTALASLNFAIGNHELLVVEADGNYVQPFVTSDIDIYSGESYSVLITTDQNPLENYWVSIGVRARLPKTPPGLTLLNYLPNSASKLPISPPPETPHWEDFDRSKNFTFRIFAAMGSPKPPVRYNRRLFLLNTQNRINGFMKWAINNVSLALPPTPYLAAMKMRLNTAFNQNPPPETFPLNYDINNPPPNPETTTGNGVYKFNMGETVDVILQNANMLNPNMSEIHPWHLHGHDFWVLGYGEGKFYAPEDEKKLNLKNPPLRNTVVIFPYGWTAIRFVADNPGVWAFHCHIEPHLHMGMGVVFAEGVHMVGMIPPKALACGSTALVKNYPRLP
The note with it: reference J. Biochem. 64, 189 (1968); Toyobo catalog; read-out: K m (L-ascorbate); cited from earlier work.

The test system of experiment [2] is ascorbate oxidase produced by Acremonium sp. HI-25. The format is biochemical. The conditions noted are these: for residual relative activities (%): 10 min, 1000 µM.
In experiment [3] the test system is ascorbate oxidase from Acremonium sp. HI-25. The conditions noted are these: NaN3 0.2%, 2880 min.
Experiment [4] concerns ascorbate oxidase from Myrothecium verrucaria, hypha. The conditions noted are these: at 1 mM; printed as effective (50% at 1 mM); cited from earlier work.

The source of these data is patent US5180672A, “Ascorbate oxidase isolated from Acremonium sp. HI-25 ferm BP-3124” (Asahi Kasei Kogyo Kabushiki Kaisha, priority 1990, dated 1993).

Where two headings read alike, the source gives them in different places.

As for `O=C1O[C@H]([C@@H](O)CO)C(O)=C1O` [L-ascorbate], in experiment [1], the Km is 250 µM.

In the case of `[Na+].[Na+].[S-2]` [Na2 S, sodium sulfide], in experiment [2], the “residual relative activities (%)” value is recorded as 3%. Regarding `[N-]=[N+]=[N-]` [sodium azide], the results for the “relative activities, 100 as buffers only” value in experiment [3] (PIPES buffer with 0.1 % BSA), in experiment [3] (Pi buffer with 0.1 % BSA) and in experiment [3] (Tris buffer with 0.1 % BSA) were 78.4%, 76.2% and 78.6%, respectively. For the same compound, in experiment [2], the “inactivation by inhibitor (in words)” value was “inactivated”.

As for `CCN(CC)C(=S)[S-].[Na+]` [sodium N,N-diethyldithiocarbamate], the “residual relative activities (%)” value in experiment [2] was 101%. Further, the inhibition by inhibitor in experiment [4] is 50%.

`O=C(O)CN(CCN(CC(=O)O)CC(=O)O)CC(=O)O` [EDTA]: the “residual relative activities (%)” value in experiment [2] is reported as 106%.
